Laboratory results as given in patent US20240238366A1, “alpha-SYNUCLEIN AGGREGATION INHIBITOR, PHARMACEUTICAL COMPOSITION FOR alpha-SYNUCLEIN DISEASE, AND USE THEREOF” (O-FORCE CO., LTD., priority 2021, published 2024).
One block for each substance: values may come before it. Ends that are not written are not given here.

How the values were obtained:
[1] = Solubility in aqueous solvent, visual check for precipitation; format: physicochemical; conditions: room temperature
Protocol: For each of the example peptides (Syn FPs) and the comparative example peptides, a 1 mmol/L peptide solution was prepared using MilliQ water as an aqueous solvent.
Each peptide was dissolved in a saline solution to prepare a 1 mmol/L sample solution.

Syn61-84 = Syn61-84 (Homo sapiens, UniProt P37840); assay: Inhibition of aggregate formation of Syn61-84, ThT fluorescence (Example B2); format: biochemical
Protocol: Specifically, reaction solutions with the following compositions were prepared and each dispensed into wells such that the amount of the reaction solution per well was 200 μL. In the following compositions, X mmol/L peptides (aggregation inhibiting peptide solutions: YS-11 and LYZA-3) were prepared using MilliQ water, and the concentration X mmol/L was set to 1 μmol/L, […], and 100 μmol/L in the reaction solutions. […] After the reaction solutions were incubated at 37° C. for 24 hours, 10 μL of 2 mmol/L ThT was added per well, and the fluorescence intensity was measured using a measurement device (product name: Cytation5, manufactured by BioTek) (n=3). The measurement wavelengths were set such that the excitation wavelength (ex) was 444 nm and the fluorescence wavelength (em) was 480 nm. As a control, a reaction solution to which water was added instead of the aggregation inhibiting peptides (YS-11 and LYZA-3) was also measured in the same way.

[2] = tested on: Parkinson's disease model mice; assay: Y-maze test in Parkinson's disease model mice produced with Syn61-84 (Example B4); format: in vivo; conditions: Day 74; 4 μL of 1 mmol/L inhibiting peptide on Day 56 to Syn61-84 mice
Protocol: (§1) As a control, a saline solution (Saline) was used.
(§2) The aggregation inhibiting peptide was not administered to the Saline administration group (n=3).
(§3) The short-term memory was evaluated through a Y-maze test on Day 14, Day 56, and Day 74, and the motor function was evaluated through a Rota-Rod test on Day 21, Day 55, Day 63, and Day 70. […] The Rota-Rod test was conducted using a rotor-rod device for mice (product name: MK-670, manufactured by Muromachi Kikai Co., Ltd.), with the rotational speed of the rotor set at 10 or 20 rpm, and the time until a mouse on the rotating rotor fell was measured.

Syn61-84 aggregates = Syn61-84 aggregates (Homo sapiens, UniProt P37840); assay: Dissociation of Syn61-84 aggregates, ThT fluorescence (Example B3); format: biochemical; conditions: peptide 0.1, 1, 10, 100 μmol/L; 0.1 mM preformed Syn61-84 aggregates; 37° C. 24 hours
Protocol: Then, reaction solutions with the following compositions were prepared and each dispensed into wells such that the amount of the reaction solution per well was 200 μL, and, after the reaction solutions were incubated at 37° C. for 24 hours, 10 μL of 2 mmol/L ThT was added per well, and the fluorescence intensity was measured using a measurement device (product name Cytation5, manufactured by BioTek) (n=3). The measurement wavelengths were set such that the excitation wavelength (ex) was 444 nm and the fluorescence wavelength (em) was 480 nm. In the following compositions, X mmol/L peptides (aggregation inhibiting peptides: YS-11 and LYZA-3) were prepared using MilliQ water, and the concentration X mmol/L was set to 0.1 μmol/L, 1 μmol/L, 10 μmol/L, and 100 μmol/L in the reaction solutions. As a control, a reaction solution to which water was added instead of the peptide YS-11 and the peptide LYZA-3 was also measured in the same way.

[3] = tested on: Parkinson's disease model mice; assay: Rota-Rod test in Parkinson's disease model mice produced with Syn61-84 (Example B4); format: in vivo
Protocol: as §1, §2, §3

[4] = tested on: mouse neuroblastoma (Neuro2a) cells; assay: Cell viability by WST-8 method after addition of incubated reaction solutions (Example B6); format: cell-based; conditions: reaction solution containing only the aggregation inhibiting peptide
Protocol: Then, reaction solutions with the following compositions were prepared using these solutions. The reaction solutions were incubated at 37° C. for 24 hours.
Meanwhile, 0.15 mL of medium per well was placed in the wells of a 96-well plate, and mouse neuroblastoma (Neuro2a) cells were seeded to be 2.66×10^4 cells per well. After incubation at 37° C. for 24 hours, 50 μL of each reaction solution after the incubation was added per well and further incubated at 37° C. for 24 hours. The cell viability (%) was then measured for each well by the WST-8 method.

solubility (visual precipitation) ([1]; 1 mmol/L in saline solution): No precipitation
Substance: VVTGVTAVAQKTVEG [Syn70-84, reference compound]

fluorescence intensity (ThT) compared with the control (Syn61-84), dissociation of aggregates (Syn61-84 aggregates): fluorescence intensity decreased
Substance: YSNFNTDY (aggregation inhibitor peptide) [LYZA-3]
aggregation inhibition ability compared at the same concentration (formation of aggregates) (Syn61-84; comparison between FIGS. 4(A) and 4(B)): greater aggregation inhibition ability than the peptide YS-11
fluorescence intensity (ThT) compared with the control (Syn61-84) (Syn61-84; peptide 1 μmol/L, 100 μmol/L, 0.1 mM Syn61-84, 37° C. 24 hours): decreased in a concentration-dependent manner
alternation rate (Y-maze) compared with Saline administration group [2]: increase in the alternation rate
spent time (Rota-Rod) at 10 rpm ([3]; 10 rpm, RR-3 and RR-4 after inhibiting peptide on Day 56): significant increase
spent time (Rota-Rod) at 10 rpm versus Saline administration group ([3]; 10 rpm, RR-4): longer than that of the Saline administration group
spent time (Rota-Rod) ([3]; RR-3 and RR-4, after inhibiting peptide on Day 56 to Syn61-84 mice): increase in the spent time

Substance: RETLVYLTHLD [YS-11]
cell viability (control taken as 100%) [4]: no effect on the cell viability

Substance: α-synuclein [full-length Syn]
solubility (visual precipitation) ([1]; 1 mmol/L in MilliQ water): precipitation of Syn was immediately visible
